Experimental data taken from patent US6770624B2, “Treatment of heart failure with growth hormone” (The Regents of the University of California, priority 1997, dated 2004).

Experiments:
[1] = test system: AT1 receptor; assay: Angiotensin II dose-response curves for changes in carotid arterial pressure (confirmation of AT1 receptor blockade); format: in vivo, rat; conditions: losartan 2 g/L in drinking water for 2 weeks; normal rats and rats with chronic MI
Protocol: In order to confirm AT1 receptor blockade with losartan, angiotensin II dose-response curves for changes in carotid arterial pressure were carried out in an additional 14 female Sprague-Dawley rats (260-300 g/each). Eight rats were normal, 4 untreated and 4 treated for 2 weeks with losartan (2 g/L in drinking water). In 6 rats a large MI was produced 3 to 4 weeks prior to study, of which 3 received losartan (2 g/L in drinking water) for 2 weeks and 3 were untreated.

[2] = test system: normal rats; assay: Body, organ and cardiac weights in normal rats after AT1 blockade and GH; format: in vivo, rat; conditions: mean ± SD, n=8
Protocol: Normal Rats: Normal female Sprague Dawley rats (240-260 g each) were randomized to one of the following four groups: rats receiving placebo for 6 weeks (Control group, n=8); rats treated with placebo for 6 weeks with concomitant rhGH (2 mg/kg bid) for the final 2 weeks (GH group, n=8); rats treated with relatively low-dose losartan (L) (20 mg/kg/day in drinking water) for 6 weeks with concomitant rhGH (2 mg/kg/bid, SC) during the final 2 weeks (LowL+GH, n=8); and rats treated with high dose L (2 g/L in drinking water) for 6 weeks with concomitant rhGH (2 mg/kg/bid, SC) during the final 2 weeks (HighL+GH, n=8). In these 32 animals, the responses of body weight (BW) and the weights of the heart and other selected organs were then examined.
After the hemodynamic measurements, the rats were euthanized and wet weights of heart and other selected organs, including liver, spleen, and kidney, were measured. Cardiac fixation was then performed as described by R. L. Duerr (1996) supra. In brief, polyethylene catheters were introduced into the LV apex and the descending aorta. The LV chamber was filled from a reservoir and maintained at 10 mmHg. After washout of blood from the coronary arteries with heparinized saline, the myocardium was perfused retrogradely from the aorta with 10% buffered formalin at a constant pressure of 60 mmHg for 20 minutes. The heart was then excised and immersed in 10% formalin for 24 hours. Subsequently, the atria and adhesions were dissected away and the right ventricle (RV) and LV were separated and weighted, the interventricular septum being included with the LV. The right tibia was dissected and its length from the condyles to the tip of the medial malleolus was measured with a micrometer caliper by the method of Yin et al., Am J Physiol (1982); 243. To compare heart weights among groups, the weights were normalized by tibial length (TL) as well as by body weight (BW).

| Molecule | shift of angiotensin II-blood pressure dose-response curves [1] | BW (body weight) ([2]; 6 weeks, rhGH final 2 weeks) [g] | Kidney weight ([2]; 6 weeks, rhGH final 2 weeks) [g] | Liver weight ([2]; 6 weeks, rhGH final 2 weeks) [g] | Spleen weight ([2]; 6 weeks, rhGH final 2 weeks) [g] | TL (tibia length) ([2]; 6 weeks, rhGH final 2 weeks) [cm] | HW/BW [2] [%] | LV/BW [2] [%] | RV/BW [2] [%] | LV wt ([2]; measured after fixation) [g] | RV wt ([2]; measured after fixation) [g] | HW (heart weight) ([2]; measured before fixation) [g] |
| --- | --- | --- | --- | --- | --- | --- | --- | --- | --- | --- | --- | --- |
| CCCCc1nc(Cl)c(CO)n1Cc1ccc(-c2ccccc2-c2nn[nH]n2)cc1 [Losartan, losartan] | marked rightward shifts | – | – | – | – | – | – | – | – | – | – | – |
| GH: recombinant human growth hormone; placebo 6 weeks with rhGH 2 mg/kg bid for the final 2 weeks | – | 319.9 ± 15.9 | 2.30 ± 0.19 | 13.69 ± 0.94 | 1.21 ± 0.10 | 4.05 ± 0.08 | 0.45 ± 0.04 | 0.33 ± 0.01 | 0.08 ± 0.01 | 1.04 ± 0.06 | 0.26 ± 0.02 | 1.42 ± 0.12 |
